# Data as given in patent US20220235011A1, “PHTHALAZINONE COMPOUNDS AND USE THEREOF” (ST PHARM CO., LTD., priority 2019, published 2022).
# Molecular target: T1, Sirt6 (Homo sapiens, UniProt Q8N6T7)
# T1 construct: purchased CycLex CY-1156V2
# Test: Measurement of Sirt6 Activity (CycLex Sirt6 Deacetylase Fluorometric Assay Kit)
# Type: biochemical
# Conditions: compound at 10 μM; fluorescence relative to the group without compound treatment (positive control group)
# Outline: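 Recombinant Sirt6 with fluoro-labelled acetyl-lysine peptide, NAD and lysylendopeptidase developer, compound added from 10× stock in PBS; 1 h at room temperature. Fluorescence read at ex 490/em 530 nm; activation expressed as fluorescence ratio relative to enzyme without compound.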
# T1 sequence (Q8N6T7 whole entry): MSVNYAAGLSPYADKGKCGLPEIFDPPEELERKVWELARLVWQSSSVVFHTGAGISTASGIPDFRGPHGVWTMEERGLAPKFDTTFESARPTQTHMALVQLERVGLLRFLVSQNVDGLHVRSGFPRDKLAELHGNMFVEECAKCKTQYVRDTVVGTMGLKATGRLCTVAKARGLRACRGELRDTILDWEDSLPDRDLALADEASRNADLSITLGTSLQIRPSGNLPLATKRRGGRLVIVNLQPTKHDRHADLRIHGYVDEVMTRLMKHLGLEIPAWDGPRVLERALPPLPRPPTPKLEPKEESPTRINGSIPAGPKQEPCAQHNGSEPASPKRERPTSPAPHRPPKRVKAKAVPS
row,SMILES,"Sirt6 Activity (% activity, 10 μM) [% activity]"
1,"Cl.NC1CCCN(c2nn(-c3ccc(F)cc3)c(=O)c3ccccc23)C1 (stereo not drawn) [Example 134, 4-(3-Aminopiperidin-1-yl)-2-(4-fluorophenyl)phthalazin-1(2H)-one-hydrochloride]",167.53
2,"CCS(=O)(=O)NC1CCCN(c2nn(-c3ccc(F)cc3)c(=O)c3ccccc23)C1 (stereo not drawn) [Example 135, N-(1-(3-(4-Fluorophenyl)-4-oxo-3,4-dihydrophthalazin-1-yl)piperidin-3-yl)ethanesulfonamide]",174.93
3,"CCS(=O)(=O)N[C@H]1CCCN(c2nn(-c3ccc(F)cc3)c(=O)c3ccccc23)C1 [Example 138, (S)—N-(1-(3-(4-Fluorophenyl)-4-oxo-3,4-dihydrophthalazin-1-yl)piperidin-3-yl)ethanesulfonamide]",175.98
4,"CCS(=O)(=O)N[C@@H]1CCCN(c2nn(-c3ccc(F)cc3)c(=O)c3ccccc23)C1 [Example 139, (R)—N-(1-(3-(4-Fluorophenyl)-4-oxo-3,4-dihydrophthalazin-1-yl)piperidin-3-yl)ethanesulfonamide]",130.07
5,"CCS(=O)(=O)NC1CCCCN(c2nn(-c3ccc(F)cc3)c(=O)c3ccccc23)C1 (stereo not drawn) [Example 141, N-(1-(3-(4-Fluorophenyl)-4-oxo-3,4-dihydrophthalazin-1-yl)azepan-3-yl)ethanesulfonamide]",212.55
6,"Cl.NC1CCCCN(c2nn(C3CCCCC3)c(=O)c3ccccc23)C1 (stereo not drawn) [Example 143, 4-(3-Aminoazepan-1-yl)-2-cyclohexyl phthalazin-1(2H)-one-hydrochloride]",238.3
7,"Cl.N[C@H]1CCCN(c2nn(C3CCCCC3)c(=O)c3ccccc23)C1 [Example 146, (S)-4-(3-Aminopiperidin-1-yl)-2-cyclohexylphthalazin-1(2H)-one-hydrochloride]",135.2
8,"CCS(=O)(=O)N[C@H]1CCCN(c2nn(C3CCCCC3)c(=O)c3ccccc23)C1 [Example 147, (S)—N-(1-(3-Cyclohexyl-4-oxo-3,4-dihydrophthalazin-1-yl)piperidin-3-yl)ethanesulfonamide]",127.7
9,"Cl.NC1CCCCN(c2nn(-c3ccc(F)cc3)c(=O)c3ccccc23)C1 (stereo not drawn) [Example 148, 4-(3-Aminoazepan-1-yl)-2-(4-fluorophenyl)phthalazin-1(2H)-one-hydrochloride]",184.3
10,"CC(C)(C(=O)O)c1cccc(-c2nn(-c3ccc(F)cc3)c(=O)c3ccccc23)c1 [Example 152, 2-(3-(3-(4-Fluorophenyl)-4-oxo-3,4-dihydrophthalazin-1-yl)phenyl)-2-methylpropanoic Acid]",195.5
11,"CNC(=O)C(C)(C)c1cccc(-c2nn(-c3ccc(F)cc3)c(=O)c3ccccc23)c1 [Example 153, 2-(3-(3-(4-Fluorophenyl)-4-oxo-3,4-dihydrophthalazin-1-yl)phenyl)-N,2-dimethylpropanamide]",280.4
12,"CN[C@H]1CCCCN(c2nn(C3CCCCC3)c(=O)c3ccccc23)C1.Cl [Example 156, (S)-2-Cyclohexyl-4-(3-(methylamino)azepan-1-yl)phthalazin-1(2H)-one-hydrochloride]",223.9
13,"Cl.N[C@@H]1CCCCN(c2nn(C3CCCCC3)c(=O)c3ccccc23)C1 [Example 159, (R)-4-(3-Aminoazepan-1-yl)-2-cyclohexyl phthalazin-1(2H)-one-hydrochloride]",398.8
14,"Cl.N[C@@H]1CCCCN(c2nn(-c3ccc(F)cc3)c(=O)c3ccccc23)C1 [Example 162, (R)-4-(3-Aminoazepan-1-yl)-2-(4-fluorophenyl)phthalazin-1(2H)-one-hydrochloride]",205.5
15,"CC(C)(C#N)c1cccc(-c2nn(-c3ccc(F)cc3F)c(=O)c3ccccc23)c1 [Example 168, 2-(3-(3-(2,4-Difluorophenyl)-4-oxo-3,4-dihydrophthalazin-1-yl)phenyl)-2-methylpropanenitrile]",155.7
16,"CC(C)(c1cccc(-c2nn(-c3ccc(F)cc3F)c(=O)c3ccccc23)c1)c1nnn[nH]1 [Example 169, 4-(3-(2-(1H-Tetrazol-5-yl)propan-2-yl)phenyl)-2-(2,4-difluorophenyl)phthalazin-1(2H)-one]",211.3
17,"CC(C)(/C(N)=N\O)c1cccc(-c2nn(-c3ccc(F)cc3F)c(=O)c3ccccc23)c1 [Example 170, (E)-2-(3-(3-(2,4-Difluorophenyl)-4-oxo-3,4-dihydrophthalazin-1-yl)phenyl)-N′-hydroxy-2-methyl propanimideamide]",262.7

# Now from value to compound:
row,"Sirt6 Activity (% activity, 10 μM) [% activity]",SMILES
1,101.27,"CCS(=O)(=O)Nc1cccc(-c2nn(C3COC3)c(=O)c3ccccc23)c1 [Example 136, N-(3-(3-(Oxetan-3-yl)-4-oxo-3,4-dihydrophthalazin-1-yl)phenyl)ethanesulfonamide]"
2,112.58,"CCS(=O)(=O)NC1CCN(c2nn(-c3ccc(F)cc3)c(=O)c3ccccc23)C1 (stereo not drawn) [Example 137, N-(1-(3-(4-Fluorophenyl)-4-oxo-3,4-dihydrophthalazin-1-yl)pyrrolidin-3-yl)ethanesulfonamide]"
3,134.41,"CCS(=O)(=O)Nc1cccc(-c2nn(C3CCC(F)(F)CC3)c(=O)c3ccccc23)c1 [Example 140, N-(3-(3-(4,4-Difluorocyclohexyl)-4-oxo-3,4-dihydrophthalazin-1-yl)phenyl)ethanesulfonamide]"
4,162.3,"NS(=O)(=O)c1cccc(-c2nn(C3CCCCC3)c(=O)c3ccccc23)c1 [Example 142, 3-(3-Cyclohexyl-4-oxo-3,4-dihydrophthalazin-1-yl)benzenesulfonamide]"
5,164.1,"CCS(=O)(=O)NC1CCCCN(c2nn(C3CCCCC3)c(=O)c3ccccc23)C1 (stereo not drawn) [Example 144, N-(1-(3-Cyclohexyl-4-oxo-3,4-dihydrophthalazin-1-yl)azepan-3-yl)ethanesulfonamide]"
6,136.6,"CCS(=O)(=O)Nc1cccc(-c2nn(C3CCC(C)CC3)c(=O)c3ccccc23)c1 (stereo not drawn) [Example 145, N-(3-(3-(4-Methylcyclohexyl)-4-oxo-3,4-dihydrophthalazin-1-yl)phenyl)ethanesulfonamide]"
7,114.9,"CCS(=O)(=O)Nc1cccc(-c2cn(-c3ccc(F)cc3)c(=O)c3ccncc23)c1 [Example 149, N-(3-(2-(4-Fluorophenyl)-1-oxo-1,2-dihydropyrido[3,4-d]pyridin-4-yl)phenyl)ethanesulfonamide]"
8,104.7,"CCS(=O)(=O)Nc1cccc(-c2nn(-c3ccc(F)cc3)c(=O)c3cccc(C)c23)c1 [Example 150, N-(3-(3-(4-Fluorophenyl)-8-methyl-4-oxo-3,4-dihydrophthalazin-1-yl)phenyl)ethanesulfonamide]"
9,263.7,"CS(=O)(=O)c1cccc(-c2nn(C3CCCCC3)c(=O)c3ccccc23)c1 [Example 154, 2-Cyclohexyl-4-(3-(methylsulfonyl)phenyl)phthalazin-1(2H)-one]"
10,230.9,"Cl.N[C@H]1CCCCN(c2nn(C3CCCCC3)c(=O)c3ccccc23)C1 [Example 155, (S)-4-(3-Aminoazepan-1-yl)-2-cyclohexyl phthalazin-1(2H)-one-hydrochloride]"
11,244.1,"Cl.N[C@H]1CCCCN(c2nn(-c3ccc(F)cc3F)c(=O)c3ccccc23)C1 [Example 157, (S)-4-(3-Aminoazepan-1-yl)-2-(2,4-difluorophenyl)phthalazin-1(2H)-one-hydrochloride]"
12,164.7,"Cl.N[C@H]1CCCCN(c2nn(-c3ccc(F)cc3)c(=O)c3ccccc23)C1 [Example 158, (S)-4-(3-Aminoazepan-1-yl)-2-(4-fluorophenyl)phthalazin-1(2H)-one-hydrochloride]"
13,289.8,"CC(C)(C(=O)O)c1cccc(-c2nn(C3CCCCC3)c(=O)c3ccccc23)c1 [Example 160, 2-(3-(3-Cyclohexyl-4-oxo-3,4-dihydrophthalazin-1-yl)phenyl)-2-methylpropanoic Acid]"
14,177,"O=C1OCCN1c1cccc(-c2nn(-c3ccc(F)cc3)c(=O)c3ccccc23)c1 [Example 161, 3-(3-(3-(4-Fluorophenyl)-4-oxo-3,4-dihydrophthalazin-1-yl)phenyl)oxazolidin-2-one]"
15,277,"CC(C)(C(N)=O)c1cccc(-c2nn(C3CCCCC3)c(=O)c3ccccc23)c1 [Example 163, 2-(3-(3-Cyclohexyl-4-oxo-3,4-dihydrophthalazin-1-yl)phenyl)-2-methylpropanamide]"
16,285.5,"CNC(=O)C(C)(C)c1cccc(-c2nn(C3CCCCC3)c(=O)c3ccccc23)c1 [Example 164, 2-(3-(3-Cyclohexyl-4-oxo-3,4-dihydrophthalazin-1-yl)phenyl)-N,2-dimethylpropanamide]"
17,277.1,"Cl.N[C@@H]1CCCCN(c2nn(-c3ccc(F)cc3F)c(=O)c3ccccc23)C1 [Example 165, (R)-4-(3-Aminoazepan-1-yl)-2-(2,4-difluorophenyl)phthalazin-1(2H)-one-hydrochloride]"
18,239.2,"CC(C)(C(=O)O)c1cccc(-c2nn(-c3ccc(F)cc3F)c(=O)c3ccccc23)c1 [Example 166, 2-(3-(3-(2,4-Difluorophenyl)-4-oxo-3,4-dihydrophthalazin-1-yl)phenyl)-2-methylpropanoic Acid]"
19,249.4,"Cl.NC1CCCCN(c2nn(-c3ccc(F)cc3F)c(=O)c3ccccc23)C1 (stereo not drawn) [Example 167, 4-(3-Aminoazepan-1-yl)-2-(2,4-difluorophenyl)phthalazin-1(2H)-one-hydrochloride]"
